pIC50: −log10 of the molar value.
Experiments:
[1] = tested on: HEK293 SuperTOPFlash reporter cells, Wnt promoter; experiment: HEK CELL Wnt Assay (luciferase reporter); format: cell-based; conditions: serial dilutions, with or without 50 ng/mL Wnt3a; 18 h
Method in brief: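 Reporter cells were seeded 24 h before dosing with serial dilutions ([…] to 1 nM), with or without 50 ng/mL Wnt3a, and incubated 18 h. Untreated cells served as negative control, with luciferase as read-out.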

bacteria = experiment: Bacteriostasis: growth inhibition over the panel of bacteria; format: cell-based; conditions: 72 h
Description: In order to assess the log reduction capabilities of compounds of Formula (1), testing was performed on organisms that are found in acute and chronic wounds. Triplicate tubes were prepared for each bacteria using 50 μL of inoculum (about 1×10^6 CFU/mL) which was added to 450 μL of compound solution (compound of Formula (I)) (or 100 μL of inoculum in 900 μL of compound solution), resulting in a final inoculum of about 1×10^5 CFU/mL, as shown in Table 4.
Tubes were mixed with a vortex and then incubated in a shaking incubator at 175 RPM and 35° C. to 37° C.
For Compounds 1, 7, 8, 10, and 18 in Tables 6, 7-A, 7-B, 8, 9, 10-A, 10-B, and 11: The compound solutions were prepared with compound (30 mg), polysorbate 20 (1.6 mL), butylene glycol (1.6 mL), phosphatidyl choline (0.66 g), ethanol (1.6 mL), hydroxypropyl cellulose (0.26 g), and ultra pure water (24.9 mL).
Testing was performed at two time points: 18 to 24 hours, and […].

closed excisional wounds = experiment: Closed excisional wound healing study (cosmesis); format: in vivo, Yucatan Miniature Swine; conditions: of 8 wounds
Description: The test composition in the closed excisional wound and burn studies for compounds without GO-HA (no GO-HA added) was a mixture with an overall concentration of 0.20 to 0.25 mg/mL of the respective compound in serum formulation as follows: compound (4 mg), butylene glycol (0.80 mL), polysorbate 20 (0.40 mL), ultra pure water (18 mL), and hydroxypropyl cellulose (0.12 g).
The test composition in the closed excisional wound and burn studies for compounds with GO-HA (Compound+GO-HA) was a mixture with an overall concentration of 1.0 mg/mL of the respective compound and 0.5 mg/mL of GO-HA in serum formulation as follows: compound (18 mg), PEG 400 (0.8 mL), GO-HA (9 mg), ultra pure water (18 mL), and hydroxypropyl cellulose (0.12 g).
The frequency of wound creation was once on dosing phase day 1. The frequency of dose administration was once on dosing phase days 1, 3, 5, 7, 9, 11, 13, 15, 17, 19, and 21. Each animal had twelve 5 cm×0.5 cm full thickness fusiform(spindle shaped) wound sites, spaced at least 3 cm apart to the appropriate depth and in a staggered pattern to reduce central cross-sectional wound tension.
Once […] was obtained, each wound was sutured closed using non-absorbable suture, the simple interrupted closure technique is shown in FIG. 13. Each wound had 5 simple interrupted sutures with a 0.5 to 1 cm interval between sutures.
Compounds of Formula (I) and controls were applied directly to the wound site in a generous layer evenly over the sutured wound using a sterile applicator as needed. After application, each wound site was covered with suitable sterile dressing materials.
Dressings were changed every dosing phase day at day 3, 5, 7, 9, 11, 13, 15, 17, 19, and 21, and sutures were removed on dosing phase day 15. After dose administration on each dosing day, the wounds were covered with dressings as described above.
All animals were scheduled to be terminated on dosing phase day 22. At termination, the entire wound site (dose site) was collected separately for each site and included at least 0.5 cm margin skin and a depth below the wound bed. […]

new porcine skin [2] = experiment: Max force of healed wound; format: in vivo; conditions: day 21; for Max Force / Max Force, Mean: topical
Description: (§1) Additional tests were performed including elasticity (Table 12); max force (Table 13); tensile strength (strain) (Table 14); energy peak (Table 15); rete-ridge formation; and collagen organization (plane polarized light) (FIG. 24) of the healed wound sites, described as follows.
A is saline (control), B is serum formulation control (vehicle), C is GO-HA (vehicle), D is Compound 1; E is Compound 1+GO-HA; F is Compound 8; G is Compound 8+GO-HA; H is Compound 10; and J is Compound 10+GO-HA. Descriptions for saline control, serum formulation control, and GO-HA are as provided above for FIG. 19.
Max Force (N) is the average force required to break/rupture a material. All compounds of Formula (I) tested with or without GO-HA ranged from 18% to 68% improvement in max force compared to the saline control.

new porcine skin [3] = experiment: Strain (tensile strength) of healed wound; format: in vivo; conditions: day 21; for Strain (tensile strength) / Strain (tensile strength), Mean: topical
Description: as §1
(§2) A is saline (control), B is serum formulation (vehicle), C is GO-HA (vehicle), D is Compound 1; E is Compound 1+GO-HA; F is Compound 8; G is Compound 8+GO-HA; H is Compound 10; and J is Compound 10+GO-HA.
Strain (tensile strength) (N/mm^2) is the force required to pull/stretch a material to a breaking point. A 20% improvement over saline considered good. All compounds of Formula (I) tested with or without GO-HA ranged from 36% to 142% improvement in tensile strength compared to the saline control.

new porcine skin [4] = experiment: Energy peak of healed wound; format: in vivo; conditions: day 21; for Energy Peak / Energy Peak, Mean: topical
Description: as §1, §2
Energy Peak (N*mm) is the maximum force applied to a material over time. All compounds of Formula (I) tested with or without GO-HA ranged from 5% to 41% improvement in energy peak compared to the saline control. […] The vehicle, GO-HA, provided a 61% improvement in energy peak over the saline control.

Row | Compound | pIC50 [1] | number of bacteria with inhibited growth (bacteria; test 1) | number of bacteria with inhibited growth (bacteria; test 2) | wounds with improved cosmesis / visible appearance than the control (closed excisional wounds) | Max Force (new porcine skin [2]; individual value 1) [N] | Max Force (new porcine skin [2]; individual value 2) [N] | Max Force (new porcine skin [2]; individual value 3) [N] | Max Force (new porcine skin [2]; individual value 4) [N] | Max Force, Mean (new porcine skin [2]) [N] | Strain (tensile strength) (new porcine skin [3]; individual value 1) [N/mm^2] | Strain (tensile strength) (new porcine skin [3]; individual value 2) [N/mm^2] | Strain (tensile strength) (new porcine skin [3]; individual value 3) [N/mm^2] | Strain (tensile strength) (new porcine skin [3]; individual value 4) [N/mm^2] | Strain (tensile strength), Mean (new porcine skin [3]) [N/mm^2] | Energy Peak (new porcine skin [4]; individual value 1) [N*mm] | Energy Peak (new porcine skin [4]; individual value 2) [N*mm] | Energy Peak (new porcine skin [4]; individual value 3) [N*mm] | Energy Peak (new porcine skin [4]; individual value 4) [N*mm] | Energy Peak, Mean (new porcine skin [4]) [N*mm] | number of bacteria with inhibited growth (bacteria) | further results
1 | O=c1[nH]c(-c2ccc(B(O)O)cc2)nc2c1CSCC2 [Compound 1, (4-(4-oxo-3,5,7,8-tetrahydro-4H-thiopyrano[4,3-d]pyrimidin-2-yl)phenyl)boronic acid] | 5.70 | 6 of 7 | 7 of 7 | 7 of 8 | 290.184 | 278.868 | 250.554 | 273.195 | 273.200 | 2.568 | 3.906 | 10.226 | 5.738 | 5.609 | 3084.657 | 2356.435 | 1240.242 | 1885.046 | 2141.595 | – | –
2 | O=c1[nH]c(-c2ccc(-c3ccc(Br)nc3)cc2)nc2c1CSCC2 [Compound 7, 2-(4-(6-bromopyridin-3-yl)phenyl)-3,5,7,8-tetrahydro-4H-thiopyrano [4,3-d]pyrimidin-4-one] | 7.77 | – | – | – | – | – | – | – | – | – | – | – | – | – | – | – | – | – | – | 4 of 7 | –
3 | CC(C)(OCCO)c1ccc(-c2nc3c(c(=O)[nH]2)CSCC3)cc1 [Compound 8, 2-(4-(2-(2-hydroxyethoxy)propan-2-yl)phenyl)-3,5,7,8-tetrahydro-4H-thiopyrano[4,3-d]pyrimidin-4-one] | 8.36 | – | – | 2 of 8 | 404.094 | 488.094 | 273.110 | 330.413 | 333.196 | 7.640 | 4.427 | 2.939 | 6.900 | 4.964 | 2946.121 | 5124.987 | 2632.780 | 2286.458 | 2856.897 | 5 of 7 | Max Force (new porcine skin [2]; individual value 5): 169.61 N; Strain (tensile strength) (new porcine skin [3]; individual value 5): 2.913 N/mm^2; improvement in energy peak compared to the saline control (new porcine skin [4]): 29%; Energy Peak (new porcine skin [4]; individual value 5): 1294.14 N*mm
4 | O=c1[nH]c(-c2ccc(-c3ccc(B(O)O)cc3)cc2)nc2c1CSCC2 [Compound 10, (4′-(4-oxo-3,5,7,8-tetrahydro-4H-thiopyrano[4,3-d]pyrimidin-2-yl)-[1,1′-biphenyl]-4-yl)boronic acid] | 8.30 | 7 of 7 | 7 of 7 | 3 of 8 | 406.879 | 474.825 | 344.860 | 335.864 | 390.607 | 6.792 | 11.592 | 5.862 | 5.506 | 7.438 | 3149.241 | 3038.880 | 2645.076 | 2623.098 | 2864.074 | – | improvement in max force compared to the saline control (new porcine skin [2]): 68%; improvement in tensile strength (strain) compared to the saline control (new porcine skin [3]): 105%; improvement in energy peak compared to the saline control (new porcine skin [4]): 41%
5 | COC(=O)NCCOC(C)(C)c1ccc(-c2nc3c(c(=O)[nH]2)CSCC3)cc1 [Compound 18, methyl (2-((2-(4-(4-oxo-3,5,7,8-tetrahydro-4H-thiopyrano[4,3-d]pyrimidin-2-yl)phenyl)propan-2-yl)oxy)ethyl)carbamate] | 8.22 | 14 of 15 | – | – | – | – | – | – | – | – | – | – | – | – | – | – | – | – | – | – | –
